# From patent US6914045B2, “Glycopeptide antibiotics” (Wyeth Holdings Corporation, priority 2001, dated 2005)
# Key:
# Assay in all cases: in vitro antibacterial evaluation, MIC by broth dilution
# Assay type in all cases: cell-based
# Enterococcus sp. = details: broth dilution, 18 hours at 35° C.
# Outline: (§1)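 MIC = lowest antibiotic concentration preventing visible growth; inoculum 5×10^5 CFU/mL; drug range 64-0.06 μg/mL; Muller-Hinton II […]; NCCLS M7-A2 guidance.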
# Streptococcus sp. = details: broth dilution, 18 hours at 35° C.
# Outline: as §1
# Staphylococcus sp. = details: broth dilution, 18 hours at 35° C.
# Outline: as §1
# Escherichia coli = details: 18 hours at 35° C.
smiles,measurement,setting,value
COc1ccc(COCC2OC(OC3C(CO)OC(Oc4ccc(CC5NC(=O)C(C(C)c6ccccc6)NC(=O)CNC(=O)C(CO)NC(=O)C(C(O)C6CNC(=N)N6C6OC(CO)C(O)C(O)C6O)NC(=O)C(C(O)C6CNC(=N)N6)NC5=O)cc4)C(O)C3O)C(O)C(O)C2O)cc1OCc1ccccc1 (stereo not shown) [Example 239],MIC Enterococcus avium (GC 4558),Enterococcus sp.,4 µg/mL
same,MIC Enterococcus faecalis (ATCC 29212),Enterococcus sp.,4 µg/mL
same,MIC Enterococcus faecalis (GC 2242),Enterococcus sp.,4 µg/mL
same,MIC Enterococcus faecalis (GC 2691),Enterococcus sp.,4 µg/mL
same,MIC Enterococcus faecalis (GC 3059),Enterococcus sp.,4 µg/mL
same,MIC Enterococcus faecalis (GC 4552),Enterococcus sp.,4 µg/mL
same,MIC Enterococcus faecalis (GC 4553),Enterococcus sp.,4 µg/mL
same,MIC Enterococcus faecalis (GC 4554),Enterococcus sp.,4 µg/mL
same,MIC Enterococcus faecalis (GC 6189),Enterococcus sp.,4 µg/mL
same,MIC Enterococcus faecium (GC 2243),Enterococcus sp.,4 µg/mL
same,MIC Enterococcus faecium (GC 4556),Enterococcus sp.,4 µg/mL
same,MIC Enterococcus faecium (GC 4557),Enterococcus sp.,2 µg/mL
same,MIC Enterococcus faecalis (ATCC 29212),Enterococcus sp.; strain ATCC 29212,4 µg/mL
same,MIC Enterococcus faecium (GC 2243),Enterococcus sp.; strain GC 2243,4 µg/mL
same,MIC Enterococcus faecalis (GC 4552),Enterococcus sp.; strain GC 4552,4 µg/mL
same,MIC Enterococcus faecalis (GC 4553),Enterococcus sp.; strain GC 4553,4 µg/mL
same,MIC Enterococcus faecalis (GC 4554),Enterococcus sp.; strain GC 4554,4 µg/mL
same,MIC Enterococcus faecium (GC 4556),Enterococcus sp.; strain GC 4556,4 µg/mL
same,MIC Enterococcus faecium (GC 4557),Enterococcus sp.; strain GC 4557,2 µg/mL
same,MIC Enterococcus avium (GC 4558),Enterococcus sp.; strain GC 4558,4 µg/mL
same,MIC Enterococcus faecalis (GC 6189),Enterococcus sp.; strain GC 6189,4 µg/mL
same,MIC Enterococcus faecalis (GC 2242),"Enterococcus sp.; inoculum 5×10^5 CFU/mL, strain GC 2242",4 µg/mL
same,MIC Enterococcus faecalis (GC 2691),"Enterococcus sp.; inoculum 5×10^5 CFU/mL, strain GC 2691",4 µg/mL
same,MIC Enterococcus faecalis (GC 3059),"Enterococcus sp.; inoculum 5×10^5 CFU/mL, strain GC 3059",4 µg/mL
same,MIC Streptococcus agalactiae (GC 4564),Streptococcus sp.,0.25 µg/mL
same,MIC Streptococcus pneumoniae (ATCC 6301),Streptococcus sp.,<0.06 µg/mL
same,MIC Streptococcus pneumoniae (GC 1894),Streptococcus sp.,<0.06 µg/mL
same,MIC Streptococcus pneumoniae (GC 4565),Streptococcus sp.,<0.06 µg/mL
same,MIC Streptococcus pyogenes (GC 4563),Streptococcus sp.,0.25 µg/mL
same,MIC Streptococcus pneumoniae (ATCC 6301),"Streptococcus sp.; inoculum 5×10^5 CFU/mL, strain ATCC 6301",<0.06 µg/mL
same,MIC Streptococcus pneumoniae (GC 1894),"Streptococcus sp.; inoculum 5×10^5 CFU/mL, strain GC 1894",<0.06 µg/mL
same,MIC Streptococcus pyogenes (GC 4563),"Streptococcus sp.; inoculum 5×10^5 CFU/mL, strain GC 4563",0.25 µg/mL
same,MIC Streptococcus agalactiae (GC 4564),"Streptococcus sp.; inoculum 5×10^5 CFU/mL, strain GC 4564",0.25 µg/mL
same,MIC Streptococcus pneumoniae (GC 4565),"Streptococcus sp.; inoculum 5×10^5 CFU/mL, strain GC 4565",<0.06 µg/mL
same,MIC Coagulase Negative Staphylococcus (GC 4547),Staphylococcus sp.,2 µg/mL
same,MIC Coagulase Negative Staphylococcus (GC 4548),Staphylococcus sp.,1 µg/mL
same,MIC Coagulase Negative Staphylococcus (GC 4549),Staphylococcus sp.,1 µg/mL
same,MIC Coagulase Negative Staphylococcus (GC 4551),Staphylococcus sp.,2 µg/mL
same,MIC Coagulase Negative Staphylococcus (GC 6257),Staphylococcus sp.,1 µg/mL
same,MIC Staphylococcus aureus (ATCC 29213),Staphylococcus sp.,2 µg/mL
same,MIC Staphylococcus aureus (GC 1131),Staphylococcus sp.,2 µg/mL
same,MIC Staphylococcus aureus (GC 3051),Staphylococcus sp.,1 µg/mL
same,MIC Staphylococcus aureus (GC 3053),Staphylococcus sp.,2 µg/mL
same,MIC Staphylococcus aureus (GC 4541),Staphylococcus sp.,4 µg/mL
same,MIC Staphylococcus aureus (GC 4542),Staphylococcus sp.,2 µg/mL
same,MIC Staphylococcus aureus (GC 4544),Staphylococcus sp.,2 µg/mL
same,MIC Staphylococcus aureus (GC 4545),Staphylococcus sp.,2 µg/mL
same,MIC Staphylococcus aureus-SMITH (GC 4543),Staphylococcus sp.,2 µg/mL
same,MIC Staphylococcus haemolyticus (GC 4546),Staphylococcus sp.,1 µg/mL
same,MIC Staphylococcus aureus (ATCC 29213),Staphylococcus sp.; strain ATCC 29213,2 µg/mL
same,MIC Staphylococcus aureus (GC 1131),Staphylococcus sp.; strain GC 1131,2 µg/mL
same,MIC Staphylococcus aureus (GC 3051),Staphylococcus sp.; strain GC 3051,1 µg/mL
same,MIC Staphylococcus aureus (GC 3053),Staphylococcus sp.; strain GC 3053,2 µg/mL
same,MIC Staphylococcus aureus (GC 4541),Staphylococcus sp.; strain GC 4541,4 µg/mL
same,MIC Staphylococcus aureus (GC 4542),Staphylococcus sp.; strain GC 4542,2 µg/mL
same,MIC Staphylococcus aureus-SMITH (GC 4543),Staphylococcus sp.; strain GC 4543,2 µg/mL
same,MIC Staphylococcus aureus (GC 4544),Staphylococcus sp.; strain GC 4544,2 µg/mL
same,MIC Staphylococcus aureus (GC 4545),Staphylococcus sp.; strain GC 4545,2 µg/mL
same,MIC Staphylococcus haemolyticus (GC 4546),Staphylococcus sp.; strain GC 4546,1 µg/mL
same,MIC Coagulase Negative Staphylococcus (GC 4547),Staphylococcus sp.; strain GC 4547,2 µg/mL
same,MIC Coagulase Negative Staphylococcus (GC 4548),Staphylococcus sp.; strain GC 4548,1 µg/mL
same,MIC Coagulase Negative Staphylococcus (GC 4549),Staphylococcus sp.; strain GC 4549,1 µg/mL
same,MIC Coagulase Negative Staphylococcus (GC 4551),Staphylococcus sp.; strain GC 4551,2 µg/mL
same,MIC Coagulase Negative Staphylococcus (GC 6257),Staphylococcus sp.; strain GC 6257,1 µg/mL
same,MIC Escherichia coli (ATCC 25922),Escherichia coli,>64 µg/mL
same,MIC Escherichia coli (GC 4559),Escherichia coli,>64 µg/mL
same,MIC Escherichia coli (GC 4560),Escherichia coli,1 µg/mL
